According to ChEMBL document CHEMBL1201862, “PubChem BioAssay data set” (2004):
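These data come from cells grown in 96-well plates and exposed to compound for 48 hours at five concentrations. Here, GI50 denotes the concentration required for 50% inhibition of growth.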 Active and inactive are the calls of the source. Cut-off read from the data, not from the text of the source: active = GI50 up to about 1.1 µM and inactive = higher.

What was measured:
Assay in all cases: inhibition of tumour cell growth, NCI panel, 48 h
SF-295 = tested on: SF-295
SK-MEL-2 = tested on: SK-MEL-2
Malme-3M = tested on: Malme-3M
MCF7 = tested on: MCF7
IGROV-1 = tested on: IGROV-1
HL-60 = tested on: HL-60
NCI-H226 = tested on: NCI-H226
K562 = tested on: K562
UACC-62 = tested on: UACC-62
OVCAR-3 = tested on: OVCAR-3
SNB-19 = tested on: SNB-19
SK-OV-3 = tested on: SK-OV-3
HT-29 = tested on: HT-29
MOLT-4 = tested on: MOLT-4
OVCAR-8 = tested on: OVCAR-8
NCI-H23 = tested on: NCI-H23
CCRF-CEM = tested on: CCRF-CEM
U-251 = tested on: U-251
NCI-H522 = tested on: NCI-H522
CAKI-1 = tested on: CAKI-1

| Structure (SMILES) | GI50 (SF-295) | GI50 (SK-MEL-2) | GI50 (Malme-3M) | GI50 (MCF7) | GI50 (IGROV-1) | GI50 (HL-60) | GI50 (NCI-H226) | GI50 (K562) | GI50 (UACC-62) | GI50 (OVCAR-3) | GI50 (SNB-19) | GI50 (SK-OV-3) | GI50 (HT-29) | GI50 (MOLT-4) | GI50 (OVCAR-8) | GI50 (NCI-H23) | GI50 (CCRF-CEM) | GI50 (U-251) | GI50 (NCI-H522) | GI50 (CAKI-1) |
| --- | --- | --- | --- | --- | --- | --- | --- | --- | --- | --- | --- | --- | --- | --- | --- | --- | --- | --- | --- | --- |
| Cc1ccc2nc3c(C(=O)NCCN(C)C)cccc3cc2c1 | 1.95 µM (inactive) | 2.36 µM (inactive) | 1.77 µM (inactive) | 2.81 µM (inactive) | 2.23 µM (inactive) | 1.23 µM (inactive) | 1.45 µM (inactive) | 2.36 µM (inactive) | 2.35 µM (inactive) | 2 µM (inactive) | 2.04 µM (inactive) | 2.39 µM (inactive) | 1.14 µM (inactive) | 0.49 µM (active) | 1.5 µM (inactive) | 1.84 µM (inactive) | 1.55 µM (inactive) | 3.26 µM (inactive) | – | – |
| CC(=O)O[C@H]1CC[C@H]2[C@@H]3CC[C@H]4Nc5c(cnn5S(C)(=O)=O)C[C@]4(C)[C@H]3CC[C@]12C | 46.8 µM (inactive) | 61.7 µM (inactive) | 38.7 µM (inactive) | 28.6 µM (inactive) | > 100 µM (inactive) | > 100 µM (inactive) | 53.5 µM (inactive) | 62.7 µM (inactive) | 33.7 µM (inactive) | 27.5 µM (inactive) | 36.7 µM (inactive) | 77.6 µM (inactive) | 48.5 µM (inactive) | 47.9 µM (inactive) | 45.4 µM (inactive) | > 100 µM (inactive) | 7.94 µM (inactive) | 53.1 µM (inactive) | 70 µM (inactive) | 38.1 µM (inactive) |
| O=C1CN2C(Cl)(Cl)C2(c2ccccc2)c2cc(Cl)ccc2N1CC(F)(F)F (centres undefined) | 18.5 µM (inactive) | 24 µM (inactive) | 22.7 µM (inactive) | – | 26.8 µM (inactive) | > 10 µM (inactive) | 26.2 µM (inactive) | 27.8 µM (inactive) | 56.1 µM (inactive) | 18.8 µM (inactive) | – | 51.2 µM (inactive) | 18.4 µM (inactive) | 19.1 µM (inactive) | 33.4 µM (inactive) | 26.2 µM (inactive) | 18.7 µM (inactive) | 18.8 µM (inactive) | 17.4 µM (inactive) | 49.3 µM (inactive) |
| O=S1(=O)C[C@@H](NCc2ccccc2)[C@H](NCc2ccccc2)C1 | > 100 µM (inactive) | > 100 µM (inactive) | > 100 µM (inactive) | > 100 µM (inactive) | 26.2 µM (inactive) | – | > 100 µM (inactive) | > 100 µM (inactive) | > 100 µM (inactive) | > 100 µM (inactive) | > 100 µM (inactive) | > 100 µM (inactive) | > 100 µM (inactive) | > 100 µM (inactive) | > 100 µM (inactive) | > 100 µM (inactive) | > 100 µM (inactive) | > 100 µM (inactive) | 73.6 µM (inactive) | > 100 µM (inactive) |
| CN1C2CC(=O)CC1[C@H](O)[C@@H]2O | > 100 µM (inactive) | > 100 µM (inactive) | > 100 µM (inactive) | > 100 µM (inactive) | – | > 100 µM (inactive) | > 100 µM (inactive) | > 100 µM (inactive) | – | > 100 µM (inactive) | > 100 µM (inactive) | – | > 100 µM (inactive) | > 100 µM (inactive) | > 100 µM (inactive) | > 100 µM (inactive) | > 100 µM (inactive) | > 100 µM (inactive) | – | – |
| CC1OC1C(=O)C1(O)C(C)C(O)C23OC2(C(O)c2c(O)cccc2C3=O)C1O (centres undefined) [CERVICARCIN] | 0.226 µM (active) | 0.142 µM (active) | 0.0431 µM (active) | 0.228 µM (active) | 0.219 µM (active) | 0.152 µM (active) | 0.31 µM (active) | 0.175 µM (active) | 0.245 µM (active) | 0.0638 µM (active) | 0.153 µM (active) | 0.111 µM (active) | 0.173 µM (active) | 0.0415 µM (active) | 0.172 µM (active) | 0.0938 µM (active) | 0.044 µM (active) | 0.232 µM (active) | 0.0964 µM (active) | 0.0497 µM (active) |
| COc1ccc2c3c1O[C@H]1C[C@@H](O)C=C[C@@]31CCN(C)C2 [GALANTAMINE] | > 150 µM (inactive) | > 150 µM (inactive) | > 150 µM (inactive) | > 36 µM (inactive) | > 150 µM (inactive) | 141 µM (inactive) | > 150 µM (inactive) | > 150 µM (inactive) | > 150 µM (inactive) | > 150 µM (inactive) | > 150 µM (inactive) | > 150 µM (inactive) | > 150 µM (inactive) | > 150 µM (inactive) | 23.8 µM (inactive) | > 150 µM (inactive) | > 150 µM (inactive) | > 150 µM (inactive) | > 150 µM (inactive) | 114 µM (inactive) |
| O=c1cc[nH]c(=O)[nH]1 [URACIL] | 382 µM (inactive) | 393 µM (inactive) | – | 398 µM (inactive) | > 828 µM (inactive) | 581 µM (inactive) | 329 µM (inactive) | 465 µM (inactive) | 330 µM (inactive) | 667 µM (inactive) | 431 µM (inactive) | 813 µM (inactive) | 509 µM (inactive) | 550 µM (inactive) | 527 µM (inactive) | 147 µM (inactive) | 318 µM (inactive) | 370 µM (inactive) | 371 µM (inactive) | 307 µM (inactive) |
